US5624911A, “Ether derivatives of pseudopterosin” (The Regents of the University of California, priority 1995, dated 1997)
Like-named read-outs stand apart in the source and are kept apart here.

B1: human plasminogen: Plasminogen (from human plasma) was obtained from Athens Research and Technology, Athens, Ga. (protein, UniProt P00747 20-810, looked up)
Plasminogen: EPLDDYVNTQGASLFSVTKKQLGAGSIEECAAKCEEDEEFTCRAFQYHSKEQQCVIMAENRKSSIIIRMRDVVLFEKKVYLSECKTGNGKNYRGTMSKTKNGITCQKWSSTSPHRPRFSPATHPSEGLEENYCRNPDNDPQGPWCYTTDPEKRYDYCDILECEEECMHCSGENYDGKISKTMSGLECQAWDSQSPHAHGYIPSKFPNKNLKKNYCRNPDRELRPWCFTTDPNKRWELCDIPRCTTPPPSSGPTYQCLKGTGENYRGNVAVTVSGHTCQHWSAQTPHTHNRTPENFPCKNLDENYCRNPDGKRAPWCHTTNSQVRWEYCKIPSCDSSPVSTEQLAPTAPPELTPVVQDCYHGDGQSYRGTSSTTTTGKKCQSWSSMTPHRHQKTPENYPNAGLTMNYCRNPDADKGPWCFTTDPSVRWEYCNLKKCSGTEASVVAPPPVVLLPDVETPSEEDCMFGNGKGYRGKRATTVTGTPCQDWAAQEPHRHSIFTPETNPRAGLEKNYCRNPDGDVGGPWCYTTNPRKLYDYCDVPQCAAPSFDCGKPQVEPKKCPGRVVGGCVAHPHSWPWQVSLRTRFGMHFCGGTLISPEWVLTAAHCLEKSPRPSSYKVILGAHQEVNLEPHVQEIEVSRLFLEPTRKDIALLKLSSPAVITDKVIPACLPSPNYVVADRTECFITGWGETQGTFGAGLLKEAQLPVIENKVCNRYEFLNGRVQSTELCAGHLAGGTDSCQGDSGGPLVCFEKDKYILQGVTSWGLGCARPNKPGVYVRVSRFVTWIEGVMRNN
B2: IL-1-α: Recombinant Human Interleukin-1-α was obtained from R&D Systems, Minneapolis, Minn. (protein, UniProt P01583 113-271, looked up)
Interleukin-1 alpha: SAPFSFLSNVKYNFMRIIKYEFILNDALNQSIIRANDQYLTAAALHNLDEAVKFDMGAYKSSKDDAKITVILRISKTQLYVTAQDEDQPVLLKEMPEIPKTITGSETNLLFFWETHGTKNYFTSVAHPNLFIATKQDYWVCLAGGPPSITDFQILENQA

Key:
[1] = system: bovine articular cartilage explants; experiment: Inhibition of IL-1-induced Cartilage Degradation in the Presence of Human Plasminogen (35S glycosaminoglycan release); format: cell-based, bovine (calf); settings: for % Inhibition @ 30 μM (Explant) / IC50: plasminogen 0.4 μM plus IL-1 0.5 ng/mL, 96 hours; for IC50: explant
Procedure: (§1) The ether derivatives were also tested to determine their usefulness in inhibiting degradation of cartilage. Bovine articular cartilage explants labeled with ^35 Sulfate were used to monitor chondrocyte-mediated cartilage degradation in the presence of plasminogen, at concentrations similar to that measured in synovial fluid (0.4 μM), cartilage is extremely sensitive to the effects of IL-1-stimulated degradation. Stimulated chondrocytes produce and activate plasminogen activator (uPA), causing conversion of plasminogen to plasmin. Plasmin is not only an effective activator of the MMP's, but also an effective proteoglycanase. Inhibitors were added to the assay concomitant with the cytokine IL-1, and their effect was monitored by measuring differences in ^35 S glycosaminoglycan release, as compared to appropriate controls.
(§2) Plasminogen (from human plasma) was obtained from Athens Research and Technology, Athens, Ga. Recombinant Human Interleukin-1-α was obtained from R&D Systems, Minneapolis, Minn. DMEM was obtained from Gibco, Grand Island, New York. ^35 S-Sodium Sulfate was obtained from Amersham, Arlington Heights, Ill.
(§3) Bovine (calf) radiocarpal joints were acquired from a local abbatoir immediately after sacrifice and transported on ice. The joints were then washed thoroughly and placed in ice containing approximately 25% Povidine (10% Povidone-lodine topical solution). The joints were then dissected in a sterile hood using good sterile technique. Media (DMEM containing 4.5 g/L D-Glucose and L-Glutamine, without sodium pyruvate) was supplemented with HEPES buffer and sodium bicarbonate, and the pH adjusted to 7.4. The media was further supplemented with penicillin and streptomycin (100 units/mL and 100 μg/ml, respectively) and 50 μg/mL L-ascorbic acid. The cartilage surfaces were exposed, and the synovial fluid was wiped away with sterile gauze. A sterile cork-borer with a diameter of 3.5 millimeters was used to remove uniform plugs of cartilage. Proper orientation was maintained by distinguishing the underlying bony layer in the plugs (only the articulating surface of the cartilage plugs were used in the experiments). The plugs were placed in a sterile flask, washed four times with 50 mL of fresh media, and then placed in an incubator (37 degrees centigrade, with 5% CO2 /95% air, with adequate humidity) and allowed to equilibrate for 1 hour. A 1 mm thick slice of the articulating surface was sliced off of each individual cartilage plug, using a specially designed template to obtain uniform thickness. The cartilage disks were then labeled en mass with ^35 Sulfate at a concentration of approximately 10 μCi/mL for approximately 72-96 hours, with hand-stirring every few hours. Subsequent to labeling, explants were equilibrated with fresh media each 48 hours. The total time for labeling/equilibration was approximately one week from acquisition/dissection of tissue.
(§4) For testing of ether derivatives, individual explants were transferred to 96-well plates containing 250μL of media with or without Plasminogen plus IL-1, and with or without ether derivative. […] All other groups in any assay would contain ether derivative along with concomitant plasminogen plus IL-1. Five samples were routinely used, with concentrations of plasminogen plus IL-1 of 0.4 μM and 0.5 ng/mL, respectively. The assay is allowed to incubate for 96 hours, prior to counting a 50 μL sample of supernatant from each well. A 50 μL sample of a papain digest of each explant is also counted for each respective well. From the counts released into the supernatant over four days, and the total counts present, the data can be expressed as % glycosaminoglycan (GAG) over the four days). The media alone % GAG release values are subtracted from all other values where plasminogen plus IL-1 were present (media alone represents the background for the system). […]

[2] = system: edema induced by phorbol 12-myristate 13-acetate (PMA) in ears of mice; experiment: Mouse Ear Edema Assay (PMA-induced edema, topical); format: in vivo; settings: for % Inhibition (of edema relative to PMA control) / Mean Edema (mgs ± SEM): topical, 50 μg/ear with PMA 2 μg/ear, 3 hours 20 minutes; for Mean Edema (mgs ± SEM): PMA controls 17.7 ± 0.6
Procedure: The pseudopterosin ethers were topically applied in acetone to the inside pinnae of the ears of mice in a solution containing the edema-causing irritant, phorbol 12-myristate 13-acetate (PMA). PMA alone (2 μg/ear) or in combination with 50 μg/ear of test compound was applied to the left ears (5 mice per treatment group) and acetone is applied to all right ears. After 3 hours 20 minutes incubation, the mice were sacrificed, the ears removed, and bores taken and weighed. Edema was measured by subtracting the weight of the right ear (acetone control) from the weight of the left ear (treated). Results were recorded as percent decrease (inhibition) or percent increase (potentiation) in edema relative to the PMA control group edema.

[3] = system: bovine articular cartilage explants; experiment: Interleukin-1 mediated cartilage degradation, with or without plasminogen (35S-GAG release); format: cell-based, bovine (calf); settings: for degradation by plasminogen alone (in words): 0.4 μM human plasminogen alone
Procedure: as §1, §2, §3, §4

Molecule	% Inhibition @ 30 μM (Explant) [1]	IC50 ([1]; Bos taurus, read-out: IC50) [µM]	% Inhibition (of edema relative to PMA control) [2] [%]	Mean Edema (mgs ± SEM) [2] [mgs]	other results
CC(C)=C[C@H]1C[C@H](C)[C@H]2CC[C@H](C)c3c(O[C@@H]4OC[C@@H](O)[C@H](O)[C@H]4O)c(OCc4ccccc4)c(C)c1c32 [WF 332, Pseudopterosin A Benzyl ether]	57%	26	68.3	5.6 ± 1.0	–
bis pseudopterosin A pentanyl diether [WF 338]	0%	–	6.7	16.5 ± 1.2	inhibition of explant degradation (in words) ([1]; as can be seen from TABLE 2): inhibited explant degradation, except for WF 338; IC50 ([1]; read-out: IC50): > 30 µM; anti-inflammatory activity (in words) ([2]; mouse ear edema, comparison compound): little if any anti-inflammatory activity
CC(C)=C[C@H]1C[C@H](C)[C@H]2CC[C@H](C)c3c(O[C@@H]4OC[C@@H](O)[C@H](O)[C@H]4O)c(OCC(N)=O)c(C)c1c32 [WF 337, Pseudopterosin A Acetamide ether]	74%	15	52.6	8.4 ± 1.4	–
CCCCCCCCCCOc1c(C)c2c3c(c1O[C@@H]1OC[C@@H](O)[C@H](O)[C@H]1O)[C@@H](C)CC[C@@H]3[C@@H](C)C[C@@H]2C=C(C)C [WF 334, Pseudopterosin A Decanyl ether]	Inconclusive	–	60.7	7.0 ± 0.9	IC50 [1]: Inconclusive
CC(C)=C[C@H]1C[C@H](C)[C@H]2CC[C@H](C)c3c(O[C@@H]4OC[C@@H](O)[C@H](O)[C@H]4O)c(OCCCCO)c(C)c1c32 [WF 336, Pseudopterosin A Butanol ether]	73%	19	69.9	5.3 ± 0.9	–
CCCCCCCCCCCCCCCCCCOc1c(C)c2c3c(c1O[C@@H]1OC[C@@H](O)[C@H](O)[C@H]1O)[C@@H](C)CC[C@@H]3[C@@H](C)C[C@@H]2C=C(C)C [WF 335, Pseudopterosin A Octadecanyl ether]	27%	> 30	54.4	8.0 ± 1.2	–
CCCCCOc1c(C)c2c3c(c1O[C@@H]1OC[C@@H](O)[C@H](O)[C@H]1O)[C@@H](C)CC[C@@H]3[C@@H](C)C[C@@H]2C=C(C)C [WF 333, Pseudopterosin A Pentyl ether]	58%	> 40	62.2	6.7 ± 1.0	–
B1	–	–	–	–	degradation by plasminogen alone (in words) [3]: does not induce any degradation above control levels; degradation by plasminogen alone (in words) ([3]; listed as plasminogen): same results as media alone
B2	–	–	–	–	35S-GAG release ([3]; IL-1-α 0.4 ng/mL plus plasminogen 0.4 μM, four day assay): approximately 50%; GAG release ([3]; IL-1-α 1 ng/mL plus 0.5 μM plasminogen): greater than 90%; increase in degradation over control ([3]; IL-1-α 2.5 ng/mL, without plasminogen): two-fold increase; release of 35S-labeled GAG ([3]; IL-1-α 10 ng/mL, without plasminogen): ~35%; dose dependence of degradation (in words) ([3]; IL-1-α, without plasminogen): induces degradation in bovine articular cartilage explants in a dose-dependent manner
